Reference: patent US20160081336A1, “MEDIUM WITH A PLANT NON-METABOLIZABLE SUGAR FOR IMPROVING SEED GERMINATION” (WEYERHAEUSER NR COMPANY, priority 2014, published 2016)

Key:
[1] = Study testing increased arginine in gametophyte medium; conditions: in vivo
Excerpt: Aside from the signaling evidence from the literature, the effect of isomaltulose is not thought to be simply from additional osmoticant because higher osmolality medium would drive the water potential gradient further in the direction of the gametophyte, not toward the embryo.

[2] = system: alkaline and acid invertases; conditions: cut potato tubers; cited from earlier work
[3] = system: embryos dissected from natural loblolly pine seed; assay: Germination of loblolly pine embryos in manufactured seed, sucrose/isomaltulose gametophyte media (Example 2); type: in vivo; conditions: relative to 20 sucrose
Excerpt: Normal (germination score): Fully extracted out of seed with no malformation (epicotyl optional for fully extracted). OR partial germinant with epicotyl out of cavity and all organs—No Malformations present. Root length of at least 3.0 mm.
Partial Normal (germination score): Not fully emerged, partial germinant with no epicotyl and no malformations. Root length of at least 3.0 mm.
Not normal (germination score): Malformed partial germinants, lacking organs, roots less than 3 mm, any upside down or twisted germinant, or germinated and died as evidenced by lid penetration but no germinant present.
Manufactured seeds were prepared with KE 64 agar nutritive medium, as shown below in Table 1, with sucrose (50 g/L), agar (18 g/L to 26 g/L), nutrient-loaded charcoal (60 g/L) and Pluronic F68 (10 g/L).
The germination rate may be measured and the normalcy of the germinants may also be assessed. A “normal germinant” or “normalcy” denotes the presence of all expected parts of a plant at time of evaluation. In the case of gymnosperms, normalcy is characterized by the radicle having a length greater than 3 mm and no visibly discernable malformations compared to the appearance of embryos germinated from natural seed. “Not normal” means tissue on at least one organ is swollen, and the root and cotyledons are dead. […]

developing embryo = assay: Earlier sucrose level study in manufactured seed (FIG. 2, 3); type: in vivo
Excerpt: Higher water potential with relation to lower sucrose levels (solute concentration) was previously purported to increase flooding in gametophyte seed cavities. […] Because of the flooding problem, this study could have selected for those treatments that had the most rapid lid penetration, which would allow embryos to escape the flooded seed environment.

embryos = assay: Lower sucrose concentrations study (15, 25, 35 and 50 g/l; FIG. 4-6); type: in vivo
Excerpt: Organ lengths were also a factor with relation to sucrose concentrations. It was hypothesized that lower sucrose concentrations would affect root lengths and indeed the lower sucrose treatments produced shorter root lengths as compared to the highest group 50 g/l sucrose (FIG. 4). […] After observing sufficient lid penetration, seed were transferred from boxes to sterile sand.

## N=C(N)NCCC[C@H](N)C(=O)O [arginine]
[1]
  performance with increased arginine: reduced performance at higher levels

## O=C(CO)[C@@H](O)[C@H](O)[C@H](O)CO[C@H]1O[C@H](CO)[C@@H](O)[C@H](O)[C@H]1O [isomaltulose, 6-O-α-d-glucopyranosyl-D-fructose]
[2]
  isomaltulose concentration at peak acid invertase activity: 20 mM
  isomaltulose concentration at peak alkaline invertase activity: 50 mM
[3]
  lateral roots: significantly improved lateral root presence

## OC[C@H]1O[C@@](CO)(O[C@H]2O[C@H](CO)[C@@H](O)[C@H](O)[C@H]2O)[C@@H](O)[C@@H]1O [sucrose]
Developing embryo; FIG. 2
  organ lengths: increased with sucrose at 50 g/l and greater
Developing embryo; FIG. 3
  normalcy: decreased with increasing sucrose concentration
embryos; FIG. 4
  root length: increased root length with relation to rising sucrose levels
embryos; after germination in sand, FIG. 6
  normalcy: normalcy increasing with higher sucrose concentrations
embryos; day 5, FIG. 5
  embryo activity: Lower concentrations of sucrose gave the highest yield of embryo activity
